In PMC10069231 (RSC Advances, 2023):
Where “and” joins values, the source holds several entries; their conditions need not be identical. Equal entries are not always repeated. Where two headings read alike, the source gives them in different places. Each block holds one compound with its values, some of them ahead of it.

How the values were obtained:
HepG-2 cell line = assay: MTT cytotoxicity assay, HepG-2; type: cell-based, human; conditions: read-out: In vitro cytotoxic activity IC50 HepG-2
Caco-2 cell line [1] = assay: MTT cytotoxicity assay, Caco-2; conditions: read-out: In vitro cytotoxic activity IC50 Caco-2
Caco-2 cells = assay: Annexin-V/propidium iodide apoptosis assay; type: cell-based, human
EGFR^Wt = EGFR^Wt (Homo sapiens, UniProt P00533); assay: EGFR kinase assay kit; type: biochemical; conditions: for IC50: Enzyme inhibitory activity IC50 EGFR^Wt, average of three independent tests; for inhibition at 10 µM: read-out: EGFR^Wt Inhibitory%
EGFR^Wt, sequence (P00533 25-1210): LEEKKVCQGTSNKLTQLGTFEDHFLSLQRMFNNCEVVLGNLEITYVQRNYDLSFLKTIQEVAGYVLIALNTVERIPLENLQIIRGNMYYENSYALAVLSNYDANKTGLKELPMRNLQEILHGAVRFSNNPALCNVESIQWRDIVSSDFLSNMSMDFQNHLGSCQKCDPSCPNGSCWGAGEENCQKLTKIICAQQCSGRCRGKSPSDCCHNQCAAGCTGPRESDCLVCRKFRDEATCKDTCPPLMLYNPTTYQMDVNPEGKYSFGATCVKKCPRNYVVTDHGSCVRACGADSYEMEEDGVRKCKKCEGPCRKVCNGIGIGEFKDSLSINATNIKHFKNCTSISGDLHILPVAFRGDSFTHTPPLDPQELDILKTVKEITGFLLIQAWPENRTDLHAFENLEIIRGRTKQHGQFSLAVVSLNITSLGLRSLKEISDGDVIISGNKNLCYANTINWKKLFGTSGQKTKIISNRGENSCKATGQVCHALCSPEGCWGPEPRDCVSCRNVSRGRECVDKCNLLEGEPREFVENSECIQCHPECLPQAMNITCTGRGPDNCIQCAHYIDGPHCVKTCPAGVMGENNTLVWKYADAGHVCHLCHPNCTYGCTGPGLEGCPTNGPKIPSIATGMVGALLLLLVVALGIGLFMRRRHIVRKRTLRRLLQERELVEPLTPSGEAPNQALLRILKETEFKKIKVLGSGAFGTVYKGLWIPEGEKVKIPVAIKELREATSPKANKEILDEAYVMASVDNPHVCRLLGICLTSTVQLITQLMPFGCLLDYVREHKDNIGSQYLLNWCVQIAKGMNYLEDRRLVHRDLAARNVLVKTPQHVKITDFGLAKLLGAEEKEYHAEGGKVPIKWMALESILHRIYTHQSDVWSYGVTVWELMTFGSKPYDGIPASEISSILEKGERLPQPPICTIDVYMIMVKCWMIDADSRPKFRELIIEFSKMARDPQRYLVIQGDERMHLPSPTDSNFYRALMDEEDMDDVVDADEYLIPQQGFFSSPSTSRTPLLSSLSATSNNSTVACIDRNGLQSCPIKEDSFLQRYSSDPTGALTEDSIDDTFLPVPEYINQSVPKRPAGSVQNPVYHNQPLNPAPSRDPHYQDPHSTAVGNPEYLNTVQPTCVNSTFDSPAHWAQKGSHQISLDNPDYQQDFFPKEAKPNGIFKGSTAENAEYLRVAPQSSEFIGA

Caco-2 cell line [2] = assay: Flow cytometry cell cycle analysis; type: cell-based, human; conditions: Caco-2, treated at IC50 7.83 μM
VEGFR-2 = VEGFR-2 (Homo sapiens, UniProt P35968); assay: biochemical
VEGFR-2, sequence (P35968 20-1356): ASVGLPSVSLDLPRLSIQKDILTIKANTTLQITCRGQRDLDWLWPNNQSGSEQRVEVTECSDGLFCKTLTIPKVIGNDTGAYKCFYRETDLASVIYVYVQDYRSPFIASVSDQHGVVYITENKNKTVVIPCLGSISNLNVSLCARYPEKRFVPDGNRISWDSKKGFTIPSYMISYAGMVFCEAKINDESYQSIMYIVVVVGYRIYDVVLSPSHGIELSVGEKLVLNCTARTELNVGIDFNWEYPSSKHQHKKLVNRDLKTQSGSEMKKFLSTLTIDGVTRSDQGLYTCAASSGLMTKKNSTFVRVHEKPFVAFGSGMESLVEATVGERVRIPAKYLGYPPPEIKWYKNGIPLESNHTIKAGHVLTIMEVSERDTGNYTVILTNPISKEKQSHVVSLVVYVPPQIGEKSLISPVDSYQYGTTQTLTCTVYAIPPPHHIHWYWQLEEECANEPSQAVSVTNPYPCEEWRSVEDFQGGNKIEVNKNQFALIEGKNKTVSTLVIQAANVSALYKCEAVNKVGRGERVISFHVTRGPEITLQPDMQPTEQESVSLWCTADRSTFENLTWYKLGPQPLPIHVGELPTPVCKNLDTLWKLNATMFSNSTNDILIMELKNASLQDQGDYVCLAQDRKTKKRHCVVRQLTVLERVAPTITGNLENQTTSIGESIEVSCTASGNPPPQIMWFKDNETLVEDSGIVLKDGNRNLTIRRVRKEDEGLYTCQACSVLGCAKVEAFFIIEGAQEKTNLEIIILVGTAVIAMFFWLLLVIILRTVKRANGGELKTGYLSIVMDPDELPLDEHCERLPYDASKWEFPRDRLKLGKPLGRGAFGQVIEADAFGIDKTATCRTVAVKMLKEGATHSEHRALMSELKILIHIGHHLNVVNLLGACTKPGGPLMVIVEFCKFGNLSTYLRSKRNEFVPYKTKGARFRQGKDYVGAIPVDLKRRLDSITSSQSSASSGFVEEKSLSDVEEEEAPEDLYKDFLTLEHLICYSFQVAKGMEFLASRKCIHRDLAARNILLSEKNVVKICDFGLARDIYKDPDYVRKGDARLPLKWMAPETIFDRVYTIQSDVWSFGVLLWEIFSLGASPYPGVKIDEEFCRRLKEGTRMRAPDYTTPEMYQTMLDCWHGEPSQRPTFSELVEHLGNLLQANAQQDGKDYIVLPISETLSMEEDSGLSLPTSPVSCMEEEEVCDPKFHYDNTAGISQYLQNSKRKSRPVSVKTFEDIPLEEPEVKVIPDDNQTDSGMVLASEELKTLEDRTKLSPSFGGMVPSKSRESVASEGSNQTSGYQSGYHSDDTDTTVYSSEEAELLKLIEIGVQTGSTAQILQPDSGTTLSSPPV

Compound: CCOC(=O)c1ccc(-n2c(C)cc(C)c(C#N)c2=O)cc1 [Compound 2, ethyl 4-(3-cyano-4,6-dimethyl-2-oxopyridin-1(2H)-yl)benzoate]
IC50 (HepG-2 cell line; Homo sapiens, HepG2, 24 h): 51.6 ± 2.9 µM
IC50 (Caco-2 cell line [1]; Homo sapiens, Caco-2, 24 h): 41.5 ± 2.5 µM

Compound: CCOC(=O)c1ccc(-n2c(C)cc(/C=C/c3ccc(OC)cc3)c(C#N)c2=O)cc1 [Compound 3a, Ethyl (E)-4-(3-cyano-4-(4-methoxystyryl)-6-methyl-2-oxopyridin-1(2H)-yl)benzoate]
IC50 (HepG-2 cell line; Homo sapiens, HepG2, 24 h): 78.2 ± 3.8 µM
IC50 (Caco-2 cell line [1]; Homo sapiens, Caco-2, 24 h): 84.4 ± 4 µM

Compound: CCOC(=O)c1ccc(-n2c(C)cc(/C=C/c3ccc(OCC)cc3)c(C#N)c2=O)cc1 [Compound 3b, Ethyl (E)-4-(3-cyano-4-(4-ethoxystyryl)-6-methyl-2-oxopyridin-1(2H)-yl)benzoate]
IC50 (HepG-2 cell line; Homo sapiens, HepG2, 24 h): 63.1 ± 3.4 µM
IC50 (Caco-2 cell line [1]; Homo sapiens, Caco-2, 24 h): 75.7 ± 3.5 µM

Compound: CCOC(=O)c1ccc(NC(=O)C2=C3C(=Nc4ccccc43)NC2=O)cc1 [Compound 6, ethyl 4-(2-oxo-1,2-dihydropyrrolo[2,3-b]indole-3-carboxamido)benzoate]
IC50 (HepG-2 cell line; Homo sapiens, HepG2, 24 h): 39.3 ± 2.5 µM
IC50 (Caco-2 cell line [1]; Homo sapiens, Caco-2, 24 h): 45.4 ± 2.7 µM

IC50 (EGFR^Wt): < 0.25 µM and 0.124 µM
inhibition at 10 µM (EGFR^Wt): 88.4%
IC50 (VEGFR-2; Enzyme inhibitory activity IC50 VEGFR-2, average of three independent tests): 0.221 ± 0.009 µM
inhibition at 10 µM (VEGFR-2; read-out: VEGFR-2 Inhibitory%): 87%
Compound: CCOC(=O)c1ccc(N2C(N)=C(C#N)C3(C(=O)Nc4ccccc43)C(C#N)=C2O)cc1 (stereo not shown) [Compound 7, Ethyl 4-(2′-amino-3′,5′-dicyano-6′-hydroxy-2-oxo-1′H-spiro[indoline-3,4′-pyridin]-1′-yl)benzoate]
IC50 (HepG-2 cell line; Homo sapiens, HepG2, 24 h): 8.9 ± 0.6 µM
Early apoptosis, increase compared to the control (Caco-2 cells; Caco-2, at IC50): 67.60 folds
Late apoptosis, increase compared to the control (Caco-2 cells; Caco-2, at IC50): 100.11 folds
Apoptosis Late (Caco-2 cells; Caco-2, at IC50 for 24 h, control 0.17): 17.02%
Apoptosis Early (Caco-2 cells; Caco-2, at IC50 for 24 h, control 0.33): 22.31%
Necrosis (Caco-2 cells; Caco-2, at IC50 for 24 h, control 1.42): 3.02%
Apoptosis Total (Caco-2 cells; Caco-2, at IC50 for 24 h, control 1.92): 42.35%
Cell cycle distribution, S phase (Caco-2 cell line [2]; untreated 31.18%): 42.07%
Cell cycle distribution, G0-G1 (Caco-2 cell line [2]; untreated 54.69%): 51.08%
Cell cycle distribution, G2/M (Caco-2 cell line [2]; untreated […]%): 6.85%
IC50 (Caco-2 cell line [1]; Homo sapiens, Caco-2, 24 h): 7.83 ± 0.5 µM

Compound: CCOC(=O)C1=C(N)N(c2ccc(C(=O)OCC)cc2)C(O)=C(C#N)C12C(=O)Nc1ccccc12 (stereo not shown) [Compound 8, Ethyl 2′-amino-5′-cyano-1′-(4-(ethoxycarbonyl)phenyl)-6′-hydroxy-2-oxo-1′H spiro[indoline-3,4′-pyridine]-3′-carboxylate]
IC50 (HepG-2 cell line; Homo sapiens, HepG2, 24 h): 8.42 ± 0.7 µM
IC50 (Caco-2 cell line [1]; Homo sapiens, Caco-2, 24 h): 13.6 ± 1.2 µM

Compound: CCOC(=O)c1ccc(-n2c(N)c(C#N)c(CC#N)c(C#N)c2=O)cc1 [Compound 10, ethyl 4-(6-amino-3,5-dicyano-4-(cyanomethyl)-2-oxopyridin-1(2H)-yl)benzoate]
IC50 (HepG-2 cell line; Homo sapiens, HepG2, 24 h): 25.2 ± 1.9 µM
IC50 (Caco-2 cell line [1]; Homo sapiens, Caco-2, 24 h): 37.8 ± 2.3 µM

Compound: CCOC(=O)c1ccc(-n2c(-c3ccc(C)cc3)cc(-c3ccc(O)cc3)c(C#N)c2=O)cc1 [Compound 11, Ethyl 4-(3-cyano-4-(4-hydroxyphenyl)-2-oxo-6-(p-tolyl)pyridin-1(2H)-yl)benzoate]
IC50 (HepG-2 cell line; Homo sapiens, HepG2, 24 h): 14.9 ± 1.2 µM
IC50 (Caco-2 cell line [1]; Homo sapiens, Caco-2, 24 h): 19.2 ± 1.4 µM

IC50 (EGFR^Wt): 0.349 ± 0.016 µM
inhibition at 10 µM (EGFR^Wt): 77.6%
Compound: COc1cccc2c1C(=O)c1c(O)c3c(c(O)c1C2=O)C[C@@](O)(C(=O)CO)C[C@@H]3O[C@H]1C[C@H](N)[C@H](O)[C@H](C)O1 [Doxorubicin, reference compound]
IC50 (HepG-2 cell line; Homo sapiens, HepG2, 24 h): 4.5 ± 0.2 µM

Compound: ethyl 4-(3′,5′-dicyano-2′,6′-dihydroxy-1,3-dioxo-1,3-dihydro-1′H-spiro[indene-2,4′-pyridin]-1′-yl)benzoate [Compound 5]
IC50 (HepG-2 cell line; MTT, 24 h incubation, HepG-2): 10.6 ± 0.8 µM
IC50 (Caco-2 cell line [1]; MTT, 24 h incubation, Caco-2): 9.78 ± 0.7 µM
